Data set [1] can be described thus: Inhibitory concentration required to inhibit PDGFR kinase was determined.
In data set [2] the target is T1, Breakpoint cluster region protein (Homo sapiens, UniProt P11274).
T1 sequence (P11274 whole entry): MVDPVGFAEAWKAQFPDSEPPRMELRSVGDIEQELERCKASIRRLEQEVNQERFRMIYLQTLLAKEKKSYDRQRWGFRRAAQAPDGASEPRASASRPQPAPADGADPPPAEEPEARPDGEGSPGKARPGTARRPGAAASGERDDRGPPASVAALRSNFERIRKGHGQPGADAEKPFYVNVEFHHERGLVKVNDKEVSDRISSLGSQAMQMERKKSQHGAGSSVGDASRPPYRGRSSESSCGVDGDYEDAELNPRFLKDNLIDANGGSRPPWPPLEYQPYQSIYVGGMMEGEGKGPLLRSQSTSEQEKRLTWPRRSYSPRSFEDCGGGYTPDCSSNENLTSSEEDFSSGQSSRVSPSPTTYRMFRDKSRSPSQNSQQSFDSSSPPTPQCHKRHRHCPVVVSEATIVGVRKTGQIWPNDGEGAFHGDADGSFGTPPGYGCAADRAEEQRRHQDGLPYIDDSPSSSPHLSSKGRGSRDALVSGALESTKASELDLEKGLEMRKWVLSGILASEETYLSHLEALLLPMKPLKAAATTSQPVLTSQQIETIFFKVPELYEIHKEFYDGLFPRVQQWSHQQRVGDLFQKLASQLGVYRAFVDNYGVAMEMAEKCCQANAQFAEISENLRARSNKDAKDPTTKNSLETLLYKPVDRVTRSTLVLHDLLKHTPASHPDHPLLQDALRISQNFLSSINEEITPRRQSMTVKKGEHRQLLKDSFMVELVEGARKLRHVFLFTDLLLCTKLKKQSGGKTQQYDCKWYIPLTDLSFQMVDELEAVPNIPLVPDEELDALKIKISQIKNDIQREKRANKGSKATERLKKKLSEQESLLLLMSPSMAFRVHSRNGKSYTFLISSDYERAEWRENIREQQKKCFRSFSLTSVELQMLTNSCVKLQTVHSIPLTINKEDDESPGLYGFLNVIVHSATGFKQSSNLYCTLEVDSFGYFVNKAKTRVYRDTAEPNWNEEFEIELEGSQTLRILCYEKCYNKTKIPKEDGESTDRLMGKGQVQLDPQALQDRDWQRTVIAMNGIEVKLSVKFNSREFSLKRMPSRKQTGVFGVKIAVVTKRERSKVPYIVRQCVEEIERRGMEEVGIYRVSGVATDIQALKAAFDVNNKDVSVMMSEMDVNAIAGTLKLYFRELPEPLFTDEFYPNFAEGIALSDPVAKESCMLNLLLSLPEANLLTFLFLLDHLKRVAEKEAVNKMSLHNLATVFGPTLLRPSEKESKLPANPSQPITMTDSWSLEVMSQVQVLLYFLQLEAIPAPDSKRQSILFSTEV
In words: Inhibitory concentration required to inhibit Bcr-Abl tyrosine kinase.

The target in data set [3] is Tyrosine-protein kinase ABL1 (Homo sapiens, UniProt P00519). In words: Inhibitory concentration required to inhibit Abl tyrosine kinase.
Sequence of Tyrosine-protein kinase ABL1 (P00519 whole entry): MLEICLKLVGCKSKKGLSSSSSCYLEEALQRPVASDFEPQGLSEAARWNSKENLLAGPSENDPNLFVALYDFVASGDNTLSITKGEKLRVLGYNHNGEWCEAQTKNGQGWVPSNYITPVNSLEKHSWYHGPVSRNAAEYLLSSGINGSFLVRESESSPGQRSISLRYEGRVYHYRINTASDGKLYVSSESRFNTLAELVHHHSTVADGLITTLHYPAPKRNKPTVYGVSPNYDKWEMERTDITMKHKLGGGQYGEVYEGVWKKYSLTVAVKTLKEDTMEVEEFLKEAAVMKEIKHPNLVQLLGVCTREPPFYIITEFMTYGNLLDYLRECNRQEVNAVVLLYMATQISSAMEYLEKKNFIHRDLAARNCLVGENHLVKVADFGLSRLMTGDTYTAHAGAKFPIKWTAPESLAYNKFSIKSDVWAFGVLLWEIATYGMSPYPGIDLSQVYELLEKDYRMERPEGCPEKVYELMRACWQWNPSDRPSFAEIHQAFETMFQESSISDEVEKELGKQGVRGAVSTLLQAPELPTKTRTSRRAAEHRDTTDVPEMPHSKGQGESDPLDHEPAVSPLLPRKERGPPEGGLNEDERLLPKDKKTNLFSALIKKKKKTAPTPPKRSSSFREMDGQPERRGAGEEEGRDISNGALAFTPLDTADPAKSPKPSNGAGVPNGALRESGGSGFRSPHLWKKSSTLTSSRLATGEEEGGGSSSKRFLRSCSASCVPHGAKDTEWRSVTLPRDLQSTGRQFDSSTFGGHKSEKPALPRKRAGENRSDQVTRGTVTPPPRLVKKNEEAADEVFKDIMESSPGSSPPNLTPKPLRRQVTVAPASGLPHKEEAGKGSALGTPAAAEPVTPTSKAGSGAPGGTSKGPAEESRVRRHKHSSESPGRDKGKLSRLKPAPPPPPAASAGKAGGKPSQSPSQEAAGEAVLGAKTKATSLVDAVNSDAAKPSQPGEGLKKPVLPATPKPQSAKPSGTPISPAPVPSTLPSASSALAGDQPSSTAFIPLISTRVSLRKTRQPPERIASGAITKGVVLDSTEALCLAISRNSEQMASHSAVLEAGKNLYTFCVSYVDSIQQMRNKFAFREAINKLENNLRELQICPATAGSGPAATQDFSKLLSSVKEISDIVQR
Data set [4] is described as follows: Maximum plasma concentration was determined in mice after 20 mg/kg oral administration of the compound. Further details: dose 20 mg/kg, route oral. As to conditions: mouse. Type of data set: ADME, organism-based.
Data set [5] is described as follows: Plasma concentration after 120 minutes gavage was determined in mice after 20 mg/kg oral administration of the compound. Further details: dose 20 mg/kg, route oral. As to conditions: mouse, read-out: C120. Type of data set: ADME, organism-based.
A short description of data set [6]: Maximum plasma concentration time in minutes was determined in mice after 20 mg/kg oral administration of the compound. Type of data set: ADME, organism-based. Further details: dose 20 mg/kg, route oral. As to conditions: mouse.

Results on 22 compounds are retold here after ChEMBL document CHEMBL1138649, “Urea derivatives of STI571 as inhibitors of Bcr-Abl and PDGFR kinases” (Bioorg Med Chem Lett, 2004).

Usually IC50 stands for the point on the concentration scale where inhibition reaches its midpoint. The Cmax is the maximum level reached in the sampled fluid or tissue. For orientation: Tmax means the time from dosing to the highest level.

For the compound `Cc1ccc(NC(=O)N(C)CCCO)cc1Nc1nccc(-c2cccnc2)n1`, the IC50 in data set [1] was more than 3000 nM.

`Cc1ccc(NC(=O)Nc2cccc(CN3CCN(C)CC3)c2)cc1Nc1nccc(-c2cccnc2)n1` displayed an IC50 in data set [1] of 192 nM.

Regarding `Cc1ccc(NC(=O)Nc2cccc(N3CCCC3)c2)cc1Nc1nccc(-c2cccnc2)n1`, the IC50 in data set [1] was more than 2500 nM.

Turning to `CCN(CC)c1cccc(NC(=O)Nc2ccc(C)c(Nc3nccc(-c4cccnc4)n3)c2)c1`, the IC50 in data set [2] (read-out: IC50) was more than 1000 nM; in data set [3], 280 nM; in data set [1], 47 nM.

Regarding `Cc1ccc(NC(=O)NCCCN2CCOCC2)cc1Nc1nccc(-c2cccnc2)n1`, the IC50 in data set [1] is 414 nM.

Compound `Cc1ccc(NC(=O)NCCCn2ccnc2)cc1Nc1nccc(-c2cccnc2)n1` had an IC50 in data set [1] of more than 1300 nM.

Turning to `Cc1ccc(NC(=O)Nc2ccccc2CN(C)C2CCCCC2)cc1Nc1nccc(-c2cccnc2)n1`, the IC50 stood at 870 nM in data set [3] and 100 nM in data set [1].

Turning to `Cc1ccc(NC(=O)NCCN2CCCC2)cc1Nc1nccc(-c2cccnc2)n1`, the IC50 was more than 9000 nM in data set [2] (read-out: IC50) and 655 nM in data set [1].

`Cc1ccc(NC(=O)Nc2cccc(N(C)C)c2)cc1Nc1nccc(-c2cccnc2)n1`: the results for the IC50 in data set [2], in data set [3] and in data set [1] were 573 nM, 56 nM and 26 nM, respectively. In data set [4], this compound had a Cmax of 1370 nM. The concentration at 2 h in data set [5] was found to be 300 nM. Further, the Tmax in data set [6] was 30 min.

`Cc1ccc(NC(=O)Nc2cccc3[nH]ncc23)cc1Nc1nccc(-c2cccnc2)n1` registered a half-maximal inhibitory concentration (IC50) in data set [1] of 375 nM.

Regarding `CCN(CC)c1ccc(NC(=O)Nc2ccc(C)c(Nc3nccc(-c4cccnc4)n3)c2)cc1`, the IC50 is more than 10000 nM in data set [2] (read-out: IC50), more than 3400 nM in data set [3] and 2020 nM in data set [1].

For `Cc1ccc(NC(=O)N2CCN(C)CC2)cc1Nc1nccc(-c2cccnc2)n1`, the IC50 in data set [2] (read-out: IC50) is more than 5000 nM; in data set [1], 132 nM.

In turn, `Cc1ccc(NC(=O)N2CCC(N3CCCC3)CC2)cc1Nc1nccc(-c2cccnc2)n1` returned an IC50 in data set [1] of 176 nM.

Regarding `Cc1ccc(NC(=O)N2CCCCC2)cc1Nc1nccc(-c2cccnc2)n1`, in data set [4], the Cmax was 4320 nM. In addition, in data set [1], the IC50 was 63 nM. Besides, in data set [5], the concentration at 2 h was determined as 510 nM. The Tmax in data set [6] was 30 min.

In turn, `Cc1ccc(NC(=O)NCCCN(C)C)cc1Nc1nccc(-c2cccnc2)n1` showed an IC50 in data set [1] of more than 1600 nM.

Regarding `Cc1ccc(NC(=O)Nc2ccc(N(C)C)cc2)cc1Nc1nccc(-c2cccnc2)n1`, the IC50 in data set [2] (read-out: IC50) is more than 10000 nM; in data set [3], more than 5000 nM; in data set [1], 1730 nM.

In the case of `Cc1ccc(NC(=O)N2CCN(Cc3ccncc3)CC2)cc1Nc1nccc(-c2cccnc2)n1`, in data set [1], the IC50 amounted to 256 nM.

`Cc1ccc(NC(=O)NCCCO)cc1Nc1nccc(-c2cccnc2)n1` returned a 50% inhibitory concentration (IC50) in data set [1] of more than 3000 nM.

`Cc1ccc(NC(=O)NCc2ccc(N(C)C)cc2)cc1Nc1nccc(-c2cccnc2)n1` showed an IC50 in data set [1] of 236 nM.

For `Cc1ccc(NC(=O)Nc2cccnc2)cc1Nc1nccc(-c2cccnc2)n1`, the IC50 in data set [3] came to 1000 nM; in data set [1], 96 nM.

In the case of `Cc1ccc(NC(=O)Nc2cccc3ncccc23)cc1Nc1nccc(-c2cccnc2)n1`, the Cmax in data set [4] is 170 nM. In data set [1], this compound gave a 50% inhibitory concentration (IC50) of 64 nM. For the same compound, the concentration at 2 h in data set [5] stood at 50 nM. Further, the Tmax in data set [6] is 30 min.

For the compound `Cc1ccc(NC(=O)Nc2cccc(Cl)c2)cc1Nc1nccc(-c2cccnc2)n1`, the results for the IC50 in data set [2] (read-out: IC50), in data set [3] and in data set [1] were 1000 nM, 175 nM and 17 nM, respectively.
